Test results taken from ChEMBL document CHEMBL1909046, “DrugMatrix in vitro pharmacology data”.

What was measured:
[1] = molecular target: C-C chemokine receptor type 5 (Homo sapiens, UniProt P51681); assay type: cell membranes, Membrane; settings: hek293; also: in other assays of this panel Not Active means under 50% inhibition at 10 µM
[2] = DRUGMATRIX: Atrial Natriuretic Factor (ANF) radioligand binding (ligand: [125I] ANF (rat)); assay type: cell membranes, Cavia porcellus, Dunkin-Hartley, Adrenal gland, Membrane; settings: Not Active = under 50% inhibition at 10 µM
[3] = molecular target: Protein kinase C alpha type (Homo sapiens, UniProt P17252); assay type: cell-based; settings: sf9;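 also: inhibition of PKCalpha kinase activity measured in an enzyme assay with histone as the phosphorylation substrate; in other assays of this panel Not Active means under 50% inhibition at 10 µM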
[4] = molecular target: Mitogen-activated protein kinase 14 (Homo sapiens, UniProt Q16539); set-up: species or system Escherichia coli;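 also: inhibition of p38alpha enzyme activity in a biochemical kinase assay, with myelin basic protein serving as substrate; in other assays of this panel Not Active means under 50% inhibition at 10 µM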
[5] = molecular target: T1, C-X-C chemokine receptor type 2 (Homo sapiens, UniProt P25025); assay type: cell membranes, Membrane; settings: cho-k1; also: in other assays of this panel Not Active means under 50% inhibition at 10 µM
T1 sequence (P25025 whole entry): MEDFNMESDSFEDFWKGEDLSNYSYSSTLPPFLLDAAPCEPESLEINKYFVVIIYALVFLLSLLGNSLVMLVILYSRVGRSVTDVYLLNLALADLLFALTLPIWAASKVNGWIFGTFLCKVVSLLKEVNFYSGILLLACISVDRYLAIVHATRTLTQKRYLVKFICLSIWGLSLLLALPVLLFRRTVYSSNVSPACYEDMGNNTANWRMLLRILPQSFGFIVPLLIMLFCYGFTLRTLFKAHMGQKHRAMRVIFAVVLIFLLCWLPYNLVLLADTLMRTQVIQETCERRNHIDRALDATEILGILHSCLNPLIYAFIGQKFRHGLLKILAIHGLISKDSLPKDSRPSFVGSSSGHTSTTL

[6] = molecular target: Sigma non-opioid intracellular receptor 1 (Homo sapiens, UniProt Q99720); assay: DRUGMATRIX: Sigma1 radioligand binding (ligand: [3H] Haloperidol); assay type: cell membranes, Jurkat, Membrane; settings: jurkat; Not Active = under 50% inhibition at 10 µM
[7] = molecular target: T2, Alpha-2C adrenergic receptor (Homo sapiens, UniProt P18825); assay: DRUGMATRIX: Adrenergic Alpha-2C radioligand binding (ligand: [3H] MK-912); assay type: cell membranes, Sf9, Membrane; settings: sf9
T2 sequence (P18825 whole entry): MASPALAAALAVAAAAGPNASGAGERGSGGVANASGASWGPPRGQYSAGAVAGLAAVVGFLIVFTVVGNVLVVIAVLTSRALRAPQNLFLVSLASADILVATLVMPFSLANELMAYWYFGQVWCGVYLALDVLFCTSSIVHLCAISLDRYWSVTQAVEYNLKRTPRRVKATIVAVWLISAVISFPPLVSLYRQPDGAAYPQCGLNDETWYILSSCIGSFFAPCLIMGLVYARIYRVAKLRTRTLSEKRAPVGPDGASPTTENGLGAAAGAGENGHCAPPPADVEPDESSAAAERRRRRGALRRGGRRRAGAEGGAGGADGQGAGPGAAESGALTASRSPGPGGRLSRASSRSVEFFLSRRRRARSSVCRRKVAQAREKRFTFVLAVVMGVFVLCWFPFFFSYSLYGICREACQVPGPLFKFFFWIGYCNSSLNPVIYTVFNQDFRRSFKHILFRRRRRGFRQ

[8] = DRUGMATRIX: Glutamate, Kainate radioligand binding (ligand: [3H] Kainic acid); assay type: cell membranes, Rattus norvegicus, Wistar, Brain, Membrane; settings: Not Active = under 50% inhibition at 10 µM
[9] = molecular target: C-C chemokine receptor type 2 (Homo sapiens, UniProt P41597); assay type: cell membranes, CHO-K1, Membrane; settings: cho-k1; also: in other assays of this panel Not Active means under 50% inhibition at 10 µM
[10] = DRUGMATRIX: Leukotriene, BLT (LTB4) radioligand binding (ligand: [3H]LTB4); assay type: cell membranes, Membrane; settings: u-937; Not Active = under 50% inhibition at 10 µM
[11] = molecular target: cGMP-specific 3',5'-cyclic phosphodiesterase (Homo sapiens, UniProt O76074); assay: DRUGMATRIX: Phosphodiesterase PDE5 enzyme inhibition (substrate: [3H]cGMP + cGMP); assay type: tissue-based, Platelet; settings: platelet; Not Active = under 50% inhibition at 10 µM
Substance-K receptor = molecular target: T3, Substance-K receptor (Homo sapiens, UniProt P21452); assay type: cell membranes, CHO, Membrane; settings: cho; also: in other assays of this panel Not Active means under 50% inhibition at 10 µM
T3 sequence (P21452 whole entry): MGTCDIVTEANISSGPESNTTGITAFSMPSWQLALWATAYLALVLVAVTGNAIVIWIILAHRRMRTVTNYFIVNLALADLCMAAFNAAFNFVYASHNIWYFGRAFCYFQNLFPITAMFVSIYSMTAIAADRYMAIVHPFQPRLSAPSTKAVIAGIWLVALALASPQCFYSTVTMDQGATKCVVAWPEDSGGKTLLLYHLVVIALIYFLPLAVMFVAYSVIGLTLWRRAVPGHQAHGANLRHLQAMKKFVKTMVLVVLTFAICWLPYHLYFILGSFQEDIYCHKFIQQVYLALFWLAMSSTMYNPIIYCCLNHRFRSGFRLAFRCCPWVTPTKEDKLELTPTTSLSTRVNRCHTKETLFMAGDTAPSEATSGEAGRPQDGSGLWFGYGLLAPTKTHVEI

[12] = molecular target: Delta-type opioid receptor (Homo sapiens, UniProt P41143); assay type: cell membranes, HEK293, Membrane; settings: hek293; also: in other assays of this panel Not Active means under 50% inhibition at 10 µM
D(1A) dopamine receptor = D(1A) dopamine receptor (Homo sapiens, UniProt P21728); assay: DRUGMATRIX: Dopamine D1 radioligand binding (ligand: [3H] SCH-23390); assay type: cell membranes, CHO, Membrane; settings: cho; Not Active = under 50% inhibition at 10 µM
[13] = molecular target: T4, C-C chemokine receptor type 4 (Homo sapiens, UniProt P51679); assay type: cell membranes, Membrane; settings: chem-1; also: in other assays of this panel Not Active means under 50% inhibition at 10 µM
T4 sequence (P51679 whole entry): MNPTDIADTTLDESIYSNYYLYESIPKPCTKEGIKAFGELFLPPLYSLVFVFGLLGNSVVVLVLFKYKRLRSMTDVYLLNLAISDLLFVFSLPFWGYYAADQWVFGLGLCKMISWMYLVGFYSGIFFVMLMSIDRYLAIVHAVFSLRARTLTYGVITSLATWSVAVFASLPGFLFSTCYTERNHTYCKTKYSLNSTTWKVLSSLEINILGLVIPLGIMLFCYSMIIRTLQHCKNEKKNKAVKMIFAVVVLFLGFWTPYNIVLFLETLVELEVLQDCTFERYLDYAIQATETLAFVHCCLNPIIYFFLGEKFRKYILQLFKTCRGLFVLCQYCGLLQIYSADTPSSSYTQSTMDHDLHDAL

[14] = molecular target: Kappa-type opioid receptor (Homo sapiens, UniProt P41145); assay: DRUGMATRIX: Opiate kappa (OP2, KOP) radioligand binding (ligand: [3H] Diprenorphine); assay type: cell membranes, HEK293, Membrane; settings: hek293; Not Active = under 50% inhibition at 10 µM
Chain of Kappa-type opioid receptor (P41145 whole entry): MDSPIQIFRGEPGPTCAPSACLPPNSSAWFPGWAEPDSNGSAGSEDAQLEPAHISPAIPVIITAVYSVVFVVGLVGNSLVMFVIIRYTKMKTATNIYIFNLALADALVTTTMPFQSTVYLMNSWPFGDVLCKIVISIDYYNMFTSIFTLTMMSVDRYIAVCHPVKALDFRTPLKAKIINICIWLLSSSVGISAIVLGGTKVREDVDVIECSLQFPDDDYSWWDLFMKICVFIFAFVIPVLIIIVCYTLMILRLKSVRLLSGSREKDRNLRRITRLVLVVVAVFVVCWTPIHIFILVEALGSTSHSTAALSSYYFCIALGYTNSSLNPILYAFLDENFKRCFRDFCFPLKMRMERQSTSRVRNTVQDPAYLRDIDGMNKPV

Chain of Mitogen-activated protein kinase 14 (Q16539 whole entry): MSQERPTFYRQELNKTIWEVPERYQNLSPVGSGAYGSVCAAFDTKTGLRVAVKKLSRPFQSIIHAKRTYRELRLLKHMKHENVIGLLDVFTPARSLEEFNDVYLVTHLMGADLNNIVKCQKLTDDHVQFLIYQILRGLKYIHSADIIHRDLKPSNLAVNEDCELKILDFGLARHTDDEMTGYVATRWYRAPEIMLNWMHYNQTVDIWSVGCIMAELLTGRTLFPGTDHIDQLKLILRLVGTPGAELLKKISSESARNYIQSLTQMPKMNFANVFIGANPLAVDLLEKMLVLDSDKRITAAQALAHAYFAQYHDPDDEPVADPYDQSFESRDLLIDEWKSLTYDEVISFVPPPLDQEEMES
Chain of Delta-type opioid receptor (P41143 whole entry): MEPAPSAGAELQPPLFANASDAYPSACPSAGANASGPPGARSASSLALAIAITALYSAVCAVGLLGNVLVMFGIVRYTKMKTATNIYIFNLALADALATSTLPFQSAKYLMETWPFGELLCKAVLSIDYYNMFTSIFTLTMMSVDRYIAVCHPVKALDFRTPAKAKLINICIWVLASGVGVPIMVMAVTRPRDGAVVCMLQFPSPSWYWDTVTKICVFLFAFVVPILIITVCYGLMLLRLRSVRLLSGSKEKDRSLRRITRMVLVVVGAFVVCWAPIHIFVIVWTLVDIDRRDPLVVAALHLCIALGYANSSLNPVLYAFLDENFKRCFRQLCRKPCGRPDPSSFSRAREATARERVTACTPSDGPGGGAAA
Chain of D(1A) dopamine receptor (P21728 whole entry): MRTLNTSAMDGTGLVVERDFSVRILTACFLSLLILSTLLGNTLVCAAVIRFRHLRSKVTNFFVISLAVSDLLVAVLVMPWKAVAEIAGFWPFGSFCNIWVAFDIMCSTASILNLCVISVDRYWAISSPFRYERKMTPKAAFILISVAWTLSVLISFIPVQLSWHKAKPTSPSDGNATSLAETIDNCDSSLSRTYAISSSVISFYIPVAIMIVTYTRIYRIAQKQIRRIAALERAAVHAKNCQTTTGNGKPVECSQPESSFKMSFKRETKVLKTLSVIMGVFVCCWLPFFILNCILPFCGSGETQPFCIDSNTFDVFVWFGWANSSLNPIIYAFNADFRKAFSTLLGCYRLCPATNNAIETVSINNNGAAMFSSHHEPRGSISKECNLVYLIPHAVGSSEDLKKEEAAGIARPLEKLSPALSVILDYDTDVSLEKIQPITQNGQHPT
Chain of C-C chemokine receptor type 5 (P51681 whole entry): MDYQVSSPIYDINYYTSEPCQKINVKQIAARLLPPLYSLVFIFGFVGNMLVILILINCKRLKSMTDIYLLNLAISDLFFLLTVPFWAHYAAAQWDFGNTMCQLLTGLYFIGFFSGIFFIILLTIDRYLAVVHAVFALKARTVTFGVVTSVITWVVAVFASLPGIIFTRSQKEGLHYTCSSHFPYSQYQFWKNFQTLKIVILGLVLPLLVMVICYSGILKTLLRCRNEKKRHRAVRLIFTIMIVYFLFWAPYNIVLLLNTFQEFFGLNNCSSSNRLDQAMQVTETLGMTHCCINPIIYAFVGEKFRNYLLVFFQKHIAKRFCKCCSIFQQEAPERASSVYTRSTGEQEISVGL
Chain of Sigma non-opioid intracellular receptor 1 (Q99720 whole entry): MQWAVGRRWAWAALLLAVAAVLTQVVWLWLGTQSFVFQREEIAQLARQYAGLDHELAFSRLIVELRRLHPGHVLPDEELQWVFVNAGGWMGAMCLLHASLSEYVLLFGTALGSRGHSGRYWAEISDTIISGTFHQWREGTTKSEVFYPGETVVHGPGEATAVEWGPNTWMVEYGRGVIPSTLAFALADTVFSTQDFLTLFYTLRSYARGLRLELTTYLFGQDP
Chain of C-C chemokine receptor type 2 (P41597 whole entry): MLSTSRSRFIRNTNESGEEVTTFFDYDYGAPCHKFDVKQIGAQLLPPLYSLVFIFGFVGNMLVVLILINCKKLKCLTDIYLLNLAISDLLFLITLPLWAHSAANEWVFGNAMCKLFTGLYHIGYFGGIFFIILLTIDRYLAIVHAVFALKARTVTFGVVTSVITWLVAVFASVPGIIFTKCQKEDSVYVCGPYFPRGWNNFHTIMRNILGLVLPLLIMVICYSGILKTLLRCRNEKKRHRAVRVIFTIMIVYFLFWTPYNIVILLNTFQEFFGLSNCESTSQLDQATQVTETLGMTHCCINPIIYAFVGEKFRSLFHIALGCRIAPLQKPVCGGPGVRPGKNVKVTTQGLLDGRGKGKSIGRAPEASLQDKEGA

Nc1ccc(S(=O)(=O)Nc2ccnn2-c2ccccc2)cc1 [SULFAPHENAZOLE]
Not Active: IC50 [1] | IC50 [2] | Ki [2] | IC50 [3] | IC50 [4] | IC50 [5] | IC50 [6] | IC50 [7] | IC50 [8] | Ki [8] | IC50 [9] | IC50 [10] | Ki [10] | IC50 [11] | IC50 (Substance-K receptor) | IC50 [12] | IC50 (D(1A) dopamine receptor) | IC50 [13] | IC50 [14]

C=CC[C@@H]1/C=C(\C)C[C@H](C)C[C@H](OC)[C@H]2O[C@@](O)(C(=O)C(=O)N3CCCC[C@H]3C(=O)O[C@H](/C(C)=C/[C@@H]3CC[C@@H](O)[C@H](OC)C3)[C@H](C)[C@@H](O)CC1=O)[C@H](C)C[C@@H]2OC [TACROLIMUS ANHYDROUS]
Not Active: IC50 [1] | IC50 [2] | Ki [2] | IC50 [3] | IC50 [4] | IC50 [5] | IC50 [6] | IC50 [7] | IC50 [8] | Ki [8] | IC50 [9] | IC50 [10] | Ki [10] | IC50 [11] | IC50 (Substance-K receptor) | IC50 [12] | IC50 (D(1A) dopamine receptor) | IC50 [13] | IC50 [14]

CC1CN(c2cc3c(cc2F)c(=O)c(C(=O)O)cn3-c2ccc(F)cc2F)CCN1 (stereo not given) [TEMAFLOXACIN]
Not Active: IC50 [1] | IC50 [2] | Ki [2] | IC50 [3] | IC50 [4] | IC50 [5] | IC50 [6] | IC50 [7] | IC50 [8] | Ki [8] | IC50 [9] | IC50 [10] | Ki [10] | IC50 [11] | IC50 (Substance-K receptor) | IC50 [12] | IC50 (D(1A) dopamine receptor) | IC50 [13] | IC50 [14]

CC(C)(C)NCC(O)c1cc(O)cc(O)c1 (stereo not given) [TERBUTALINE]
Not Active: IC50 [1] | IC50 [2] | Ki [2] | IC50 [3] | IC50 [4] | IC50 [5] | IC50 [6] | IC50 [7] | IC50 [8] | Ki [8] | IC50 [9] | IC50 [10] | Ki [10] | IC50 [11] | IC50 (Substance-K receptor) | IC50 [12] | IC50 (D(1A) dopamine receptor) | IC50 [13] | IC50 [14]

CN(C)[C@@H]1C(O)=C(C(N)=O)C(=O)[C@@]2(O)C(O)=C3C(=O)c4c(O)cccc4[C@@](C)(O)[C@H]3C[C@@H]12 [TETRACYCLINE]
Not Active: IC50 [1] | IC50 [2] | Ki [2] | IC50 [3] | IC50 [4] | IC50 [5] | IC50 [6] | IC50 [7] | IC50 [8] | Ki [8] | IC50 [9] | IC50 [10] | Ki [10] | IC50 [11] | IC50 (Substance-K receptor) | IC50 [12] | IC50 (D(1A) dopamine receptor) | IC50 [13] | IC50 [14]
